Source: patent US9156796B2, “Benzoimidazole-carboxylic acid amide derivatives as APJ receptor modulators” (SANOFI, priority 2013, dated 2015)

The molecules below were run against T1, human apelin receptor (Homo sapiens, UniProt P35414) (assay: Determination of agonism on the human apelin receptor by a calcium fluorescence assay (FLIPR)). Conditions: HEK293 cells stably transfected with human apelin receptor and Giaq protein, Fluo-4 calcium fluorescence, read-out: EC50 (APJ agonism).
T1 construct: expressed in transfected cells
T1 sequence (P35414 1-380): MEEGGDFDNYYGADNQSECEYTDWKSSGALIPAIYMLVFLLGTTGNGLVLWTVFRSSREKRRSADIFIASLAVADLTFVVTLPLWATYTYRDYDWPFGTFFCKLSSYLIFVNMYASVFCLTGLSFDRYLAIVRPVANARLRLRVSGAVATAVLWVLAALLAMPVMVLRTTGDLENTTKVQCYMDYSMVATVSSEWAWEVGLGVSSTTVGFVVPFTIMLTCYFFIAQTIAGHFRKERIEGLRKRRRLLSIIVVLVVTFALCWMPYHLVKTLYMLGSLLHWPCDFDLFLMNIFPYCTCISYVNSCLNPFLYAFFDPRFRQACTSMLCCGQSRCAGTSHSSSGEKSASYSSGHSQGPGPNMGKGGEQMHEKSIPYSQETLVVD
Type: cell-based
Procedure, shortened: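 HEK293 cells stably co-expressing human apelin receptor and promiscuous Giaq, loaded 1 h at 37 °C with Fluo-4 (4 μM) in probenecid-containing Hepes buffer, pH 7.4. Compounds, at least 7 concentrations in triplicate, added in FLIPR Tetra; peak calcium fluorescence normalized to 1 μM apelin-13 as 100% to derive EC50.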

EC50 [nM] | Structure (SMILES)
1260 | CCC(CC)n1c(Cc2cccs2)nc2cc(C(=O)N[C@@H](CC(C)C)C(=O)N3CCC(N(CC)Cc4ccccc4)CC3)ccc21 [Example 336, 1-(1-Ethyl-propyl)-2-thiophen-2-ylmethyl-1H-benzoimidazole-5-carboxylic acid {(S)-1-[4-(benzyl-ethyl-amino)-piperidine-1-carbonyl]-3-methyl-butyl}-amide]
124 | CCCC(CC(=O)O)NC(=O)c1ccc2c(c1)nc(Cc1cccs1)n2[C@@H]1CCCC[C@H]1C (single isomer, unassigned) [Example 458]
3800 | CCC(C)Cn1c(CC2CCCCC2)nc2cc(C(=O)N[C@@H](CC(C)C)C(=O)O)ccc21 (stereo partly drawn) [Example 135, (S)-2-{[2-Cyclohexylmethyl-1-(2-methyl-butyl)-1H-benzoimidazole-5-carbonyl]-amino}-4-methyl-pentanoic acid]
9500 | CCC(C)Cn1c(Cc2ccsc2)nc2cc(C(=O)N[C@@H](CC(C)C)C(=O)O)ccc21 (stereo partly drawn) [Example 137, (S)-4-Methyl-2-{[1-(2-methyl-butyl)-2-thiophen-3-ylmethyl-1H-benzoimidazole-5-carbonyl]-amino}-pentanoic acid]
475 | C[C@@H]1CCCC[C@H]1n1c(Cc2cccs2)nc2cc(C(=O)NC(CC(=O)O)C3CCCCC3)ccc21 (stereo partly drawn) [Example 57, 3-Cyclohexyl-3-{[1-((1R,2R)-2-methyl-cyclohexyl)-2-thiophen-2-ylmethyl-1H-benzoimidazole-5-carbonyl]-amino}-propionic acid]
2660 | CCC(CC)n1c(Cc2cccs2)nc2cc(C(=O)N[C@@H](CC(C)C)C(=O)N3CC4CC3CN4CC(C)C)ccc21 (stereo partly drawn) [Example 348, 1-(1-Ethyl-propyl)-2-thiophen-2-ylmethyl-1H-benzoimidazole-5-carboxylic acid [(S)-1-(5-isobutyl-2,5-diaza-bicyclo[2.2.1]heptane-2-carbonyl)-3-methyl-butyl]-amide]
210 | CCC(CC)n1c(Cc2ccsc2)nc2cc(C(=O)N[C@H](CC(=O)O)CC(C)C)ccc21 [Example 156, (S)-3-{[1-(1-Ethyl-propyl)-2-thiophen-3-ylmethyl-1H-benzoimidazole-5-carbonyl]-amino}-5-methyl-hexanoic acid]
15700 | CCC(CC)n1c(Cc2cccs2)nc2cc(C(=O)N[C@H](c3nnc(COC)[nH]3)C(C)C)ccc21 [Example 482, 1-(1-Ethyl-propyl)-2-thiophen-2-ylmethyl-1H-benzoimidazole-5-carboxylic acid [(S)-1-(5-methoxymethyl-2H-[1,2,4]triazol-3-yl)-2-methyl-propyl]-amide]
15000 | CC(C)C[C@H](NC(=O)c1ccc2c(c1)nc(Cc1ccccc1)n2C1CCCCC1)C(=O)O [Example 148, (S)-2-[(2-Benzyl-1-cyclohexyl-1H-benzoimidazole-5-carbonyl)-amino]-4-methyl-pentanoic acid]
886 | C[C@@H]1CCCC[C@H]1n1c(Cc2cncs2)nc2cc(C(=O)N[C@@H](CC3CCCCC3)C(=O)O)ccc21 [Example 37, (S)-3-Cyclohexyl-2-{[1-((1R,2R)-2-methyl-cyclohexyl)-2-thiazol-5-ylmethyl-1H-benzoimidazole-5-carbonyl]-amino}-propionic acid]
8910 | CCC(CC)n1c(CC2CCCC2)nc2cc(C(=O)N[C@@H](CO)CC(C)C)ccc21 [Example 176, 2-Cyclopentylmethyl-1-(1-ethyl-propyl)-1H-benzoimidazole-5-carboxylic acid ((R)-1-hydroxymethyl-3-methyl-butyl)-amide]
9330 | O=C(N[C@@H](Cc1ccccc1)C(=O)O)c1ccc2c(c1)nc(Cc1cccs1)n2C1CCCCC1C(F)(F)F (stereo partly drawn) [Example 89, (S)-3-Phenyl-2-{[2-thiophen-2-ylmethyl-1-(2-trifluoromethyl-cyclohexyl)-1H-benzoimidazole-5-carbonyl]-amino}-propionic acid]
9870 | CCC(CC)n1c(Cc2cccs2)nc2cc(C(=O)NC(C)(C(=O)O)C(C)C)ccc21 (stereo not drawn) [Example 5, 2-{[1-(1-Ethyl-propyl)-2-thiophen-2-ylmethyl-1H-benzoimidazole-5-carbonyl]-amino}-2,3-dimethyl-butyric acid]
1750 | CCC(CC)n1c(Cc2cscn2)nc2cc(C(=O)N[C@H](CO)CC(C)C)ccc21 [Example 205, 1-(1-Ethyl-propyl)-2-thiazol-4-ylmethyl-1H-benzoimidazole-5-carboxylic acid ((S)-1-hydroxymethyl-3-methyl-butyl)-amide]
9290 | CCC(CC)n1c(Cc2cccs2)nc2cc(C(=O)N[C@@H](CC(C)C)C(=O)N3CC4CC3CN4Cc3ccc(OC)cc3)ccc21 (stereo partly drawn) [Example 351, 1-(1-Ethyl-propyl)-2-thiophen-2-ylmethyl-1H-benzoimidazole-5-carboxylic acid {(S)-1-[5-(4-methoxy-benzyl)-2,5-diaza-bicyclo[2.2.1]heptane-2-carbonyl]-3-methyl-butyl}-amide]

The next lines start with the molecule.

Structure (SMILES) | EC50 [nM]
CCC(CC)n1c(Cc2cccs2)nc2cc(C(=O)N[C@@H](CC(C)C)C(=O)NC(C)c3ccc(F)cc3)ccc21 (stereo partly drawn) [Example 246, 1-(1-Ethyl-propyl)-2-thiophen-2-ylmethyl-1H-benzoimidazole-5-carboxylic acid {(S)-1-[1-(4-fluoro-phenyl)-ethylcarbamoyl]-3-methyl-butyl}-amide] | 6840
CC(C)C[C@H](NC(=O)c1ccc2c(c1)nc(CC1CCCC1)n2CC(C)C)C(=O)O [Example 128, (S)-2-[(2-Cyclopentylmethyl-1-isobutyl-1H-benzoimidazole-5-carbonyl)-amino]-4-methyl-pentanoic acid] | 10000
CCC(CC)n1c(Cc2cccs2)nc2cc(C(=O)N[C@@H](CC(C)C)C(=O)N(C)CC3CCCCO3)ccc21 (stereo partly drawn) [Example 395, 1-(1-Ethyl-propyl)-2-thiophen-2-ylmethyl-1H-benzoimidazole-5-carboxylic acid {(S)-3-methyl-1-[methyl-(tetrahydro-pyran-2-ylmethyl)-carbamoyl]-butyl}-amide] | 1760
CCCC(NC(=O)c1ccc2c(c1)nc(Cc1cccs1)n2C(CC)CC)c1ccccn1 (stereo not drawn) [Example 477, 1-(1-Ethyl-propyl)-2-thiophen-2-ylmethyl-1H-benzoimidazole-5-carboxylic acid (1-pyridin-2-yl-butyl)-amide] | 2720
CC(C)C[C@@H](CC(=O)O)NC(=O)c1ccc2c(c1)nc(Cc1cccs1)n2CC1CCCCC1 [Example 97, (S)-3-[(1-Cyclohexylmethyl-2-thiophen-2-ylmethyl-1H-benzoimidazole-5-carbonyl)-amino]-5-methyl-hexanoic acid] | 39000
CCCC[C@H](NC(=O)c1ccc2c(c1)nc(Cc1cccs1)n2C1CCCCC1C)C(=O)O (single isomer, unassigned) [Example 421] | 20000
C[C@@H]1CCCC[C@H]1n1c(Cc2cccs2)nc2cc(C(=O)NC(CC3CCCCCC3)C(=O)O)ccc21 (single isomer, unassigned) [Example 450] | 720
CC[C@H](C)[C@@H](CC(=O)O)NC(=O)c1ccc2c(c1)nc(Cc1cccs1)n2[C@@H]1CCCC[C@H]1C [Example 53, (3R,4S)-4-Methyl-3-{[1-((1R,2R)-2-methyl-cyclohexyl)-2-thiophen-2-ylmethyl-1H-benzoimidazole-5-carbonyl]-amino}-hexanoic acid] | 48
CC(C)C[C@@H](CO)NC(=O)c1ccc2c(c1)nc(Cc1cccs1)n2C1CCCCC1C (stereo partly drawn) [Example 211, 1-(2-Methyl-cyclohexyl)-2-thiophen-2-ylmethyl-1H-benzoimidazole-5-carboxylic acid ((S)-1-hydroxymethyl-3-methyl-butyl)-amide] | 705
CC1CCCCC1n1c(Cc2cccs2)nc2cc(C(=O)N[C@@H](CC3CCCCC3)C(=O)O)ccc21 (single isomer, unassigned) [Example 427] | 1320
CCC(CC)n1c(Cc2cccs2)nc2cc(C(=O)N[C@@H](CCC(C)C)C(=O)O)ccc21 [Example 130, (S)-2-{[1-(1-Ethyl-propyl)-2-thiophen-2-ylmethyl-1H-benzoimidazole-5-carbonyl]-amino}-5-methyl-hexanoic acid] | 293
CCC(CC)n1c(Cc2cccs2)nc2cc(C(=O)N[C@@H](CC(C)C)C(=O)NCC3CCCN4CCCCC34)ccc21 (stereo partly drawn) [Example 275, 1-(1-Ethyl-propyl)-2-thiophen-2-ylmethyl-1H-benzoimidazole-5-carboxylic acid {(S)-3-methyl-1-[(octahydro-quinolizin-1-ylmethyl)-carbamoyl]-butyl}-amide] | 242
C[C@@H]1CCCC[C@H]1n1c(Cc2cccs2)nc2cc(C(=O)NC(CC(=O)O)C3CCCCC3)ccc21 (single isomer, unassigned) [Example 463] | 2480
CCC(CC)n1c(Cc2cccs2)nc2cc(C(=O)N[C@@H](CC(C)C)C(=O)NCCCN3CCN(c4ccc(OC)cc4)CC3)ccc21 [Example 279, 1-(1-Ethyl-propyl)-2-thiophen-2-ylmethyl-1H-benzoimidazole-5-carboxylic acid ((S)-1-{3-[4-(4-methoxy-phenyl)-piperazin-1-yl]-propylcarbamoyl}-3-methyl-butyl)-amide] | 2270
CC(C)C[C@H](NC(=O)c1ccc2c(c1)nc(Cc1cccs1)n2C1CCCCCC1)C(=O)O [Example 111, (S)-2-[(1-Cycloheptyl-2-thiophen-2-ylmethyl-1H-benzoimidazole-5-carbonyl)-amino]-4-methyl-pentanoic acid] | 579
